Test results taken from patent US9815867B2, “Peptide for inhibiting vascular endothelial growth factor receptor” (The University of Tokyo, priority 2012, dated 2017).
Starred links: 1 amine or outer side, 2 acyl side, 3 side chain; linkers in the order of their positions; H or OH if unused. Positions of bridges follow the written chain, without caps; N, C: chain ends. Residues, ends and D or L forms follow the SMILES beside them. X1 = O=C(C[*:2])Nc1cccc(C(=O)[*:1])c1

Key:
mouse VEGFR2 = molecular target: T1, mouse VEGFR2 (Mus musculus, UniProt P35918); assay: Binding of cyclic peptide to mouse VEGFR2 by BLI method (ForteBio); conditions: VEGFR2-Fc fusion immobilized, 30° C., read-out: koff, dissociation rate constant for mouse VEGFR2
T1 construct: Fc (fusion partner)
Description: (§1) A dissociation constant of binding between the cyclic peptide L1 or BL1 thus synthesized and human VEGFR2 or mouse VEGFR2 was determined by BLI method (ForteBio). A fusion protein of VEGFR2 and Fc was immobilized onto Anti-human IgG Capture Biosensors and the cyclic peptide L1 or BL1 varied in concentration was analyzed. The temperature was set at 30° C.

human VEGFR2 = molecular target: T2, human VEGFR2 (Homo sapiens, UniProt P35968); assay: Binding of cyclic peptide to human VEGFR2 by BLI method (ForteBio); conditions: VEGFR2-Fc fusion immobilized, 30° C., read-out: koff, dissociation rate constant for human VEGFR2
T2 construct: Fc (fusion partner)
Description: as §1

HUVEC = format: cell-based, human; conditions: 24 h
Description: Next, growth inhibiting activity of L1 and BL1 against HUVEC was examined by BrdU method. HUVEC cells were treated for 30 minutes with a cyclic peptide L1 or BL1 varied in concentration and then, co-incubated with the cyclic peptide and 10 ng/mL of VEGF. Twenty four hours later, the cells were labeled with BrdU for 4 hours in the presence of the cyclic peptide and VEGF. Then, the resulting cells were fixed, stained with a peroxidase-conjugated anti-BrdU antibody, and peroxidase activity was detected using a tetramethylbenzidine color colorimetric substrate. The cells without peptide and VEGF treatments and the cells without only peptide treatment were used as a control.

[1] = tested on: HUVEC and human skin-derived fibroblasts; assay: VEGF-dependent angiogenesis, Kurabo angiogenesis kit (HUVEC and human skin-derived fibroblast co-culture); format: cell-based; conditions: 10 μm-L1 administered group; 10 ng/mL VEGF, 11 days, anti-CD31 staining; compared with 50 μM Suramin
Description: Next, angiogenesis kit of Kurabo was used to study the influence of L1 or BL1 on VEGF-dependent angiogenesis. HUVEC and human skin-derived fibroblasts were co-cultured in the presence of 10 ng/mL of VEGF and L1 or BL1 varied in concentration. After culturing at 37° C., supplementation with VEGF and peptide having the same concentration three days, six days, and eight days later, and fixation of the HUVEC cells 11 days later, the resulting cells were stained with an anti-CD31 antibody to visualize them and analyzed by making use of an image analysis service included in the kit. As a control, 50 μM of an angiogenesis inhibitor Suramin was added instead of the peptide.

T2 sequence (P35968 20-764 limits assumed): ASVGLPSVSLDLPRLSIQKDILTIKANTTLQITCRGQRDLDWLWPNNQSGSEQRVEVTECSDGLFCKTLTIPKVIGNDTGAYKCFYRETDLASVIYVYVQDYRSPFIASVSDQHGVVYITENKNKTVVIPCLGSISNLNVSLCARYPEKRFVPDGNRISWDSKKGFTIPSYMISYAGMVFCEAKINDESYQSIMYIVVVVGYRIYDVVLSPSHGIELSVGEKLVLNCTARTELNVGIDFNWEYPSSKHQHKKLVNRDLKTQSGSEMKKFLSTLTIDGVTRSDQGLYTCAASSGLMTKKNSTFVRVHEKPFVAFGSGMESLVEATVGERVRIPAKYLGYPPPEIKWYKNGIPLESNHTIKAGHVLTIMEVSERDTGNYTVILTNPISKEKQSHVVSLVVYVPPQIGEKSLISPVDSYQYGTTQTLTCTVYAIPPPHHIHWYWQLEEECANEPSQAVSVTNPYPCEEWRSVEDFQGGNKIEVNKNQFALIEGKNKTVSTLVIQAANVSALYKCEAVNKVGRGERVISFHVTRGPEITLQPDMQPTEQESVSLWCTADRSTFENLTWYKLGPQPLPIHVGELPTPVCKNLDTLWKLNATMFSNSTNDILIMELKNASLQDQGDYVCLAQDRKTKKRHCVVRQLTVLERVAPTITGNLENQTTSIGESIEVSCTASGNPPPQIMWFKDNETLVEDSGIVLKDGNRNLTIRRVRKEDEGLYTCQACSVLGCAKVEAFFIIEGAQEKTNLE
T1 sequence (P35918 20-762 limits assumed): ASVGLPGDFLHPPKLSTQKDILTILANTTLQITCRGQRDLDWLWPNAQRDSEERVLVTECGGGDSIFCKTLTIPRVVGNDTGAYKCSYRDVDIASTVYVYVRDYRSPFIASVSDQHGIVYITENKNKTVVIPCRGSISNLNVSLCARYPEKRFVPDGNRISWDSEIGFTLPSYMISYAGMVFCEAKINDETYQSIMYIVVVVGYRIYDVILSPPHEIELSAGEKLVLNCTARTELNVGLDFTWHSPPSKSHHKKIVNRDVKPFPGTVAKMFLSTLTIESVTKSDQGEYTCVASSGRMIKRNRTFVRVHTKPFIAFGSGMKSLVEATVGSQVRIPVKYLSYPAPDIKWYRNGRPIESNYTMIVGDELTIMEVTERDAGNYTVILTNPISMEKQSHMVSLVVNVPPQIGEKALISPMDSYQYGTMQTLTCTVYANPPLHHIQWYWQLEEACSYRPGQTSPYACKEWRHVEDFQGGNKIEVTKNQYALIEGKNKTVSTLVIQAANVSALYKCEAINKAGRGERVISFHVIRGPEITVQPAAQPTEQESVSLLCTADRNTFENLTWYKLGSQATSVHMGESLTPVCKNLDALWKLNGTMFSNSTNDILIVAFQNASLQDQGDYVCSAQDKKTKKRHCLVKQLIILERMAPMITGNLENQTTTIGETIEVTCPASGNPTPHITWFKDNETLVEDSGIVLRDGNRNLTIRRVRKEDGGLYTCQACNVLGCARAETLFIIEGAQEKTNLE

| SMILES | koff (mouse VEGFR2) [s⁻¹] | koff (human VEGFR2) [s⁻¹] | IC50 (HUVEC) [µM] | angiogenesis inhibiting effect [1] |
| --- | --- | --- | --- | --- |
| CC[C@H](C)[C@@H]1NC(=O)[C@H](Cc2ccccc2)NC(=O)c2cccc(c2)NC(=O)CSC[C@@H](C(=O)NCC(N)=O)NC(=O)[C@H](CCCNC(=N)N)NC(=O)[C@H](CCC(=O)O)NC(=O)[C@H](CC(C)C)NC(=O)[C@H](CO)NC(=O)[C@H]([C@@H](C)CC)NC(=O)[C@@H]2CCCN2C(=O)[C@H](Cc2c[nH]cn2)NC(=O)[C@H](C(C)C)NC(=O)[C@H](CCCCN)NC(=O)[C@H](C(C)C)NC(=O)[C@H](CCCNC(=N)N)NC(=O)[C@H](Cc2ccc(O)cc2)NC(=O)[C@H](Cc2c[nH]cn2)NC(=O)CNC1=O [BL1, MCAB-L-Phe-Ile-Gly-His-Tyr-Arg-Val-Lys-Val-His-Pro-Ile-Ser-Leu-Glu-Arg-Cys] (FIGHYRVKVHPISLERCG-NH2; linker N-17 via X1) | 0.0008 | 0.0009 | 0.06 |  |
| CC[C@H](C)[C@@H]1NC(=O)[C@H](Cc2ccc(O)cc2)NC(=O)[C@H](CC(C)C)NC(=O)CNC(=O)[C@H](CC(N)=O)NC(=O)[C@H](C(C)C)NC(=O)[C@H](Cc2c[nH]c3ccccc23)NC(=O)[C@@H]2CCCN2C(=O)[C@H](CC(=O)O)NC(=O)[C@H]([C@@H](C)O)NC(=O)[C@H](CO)NC(=O)[C@H](C(C)C)NC(=O)[C@H](C(C)C)NC(=O)[C@H](C(C)C)NC(=O)[C@H](Cc2ccccc2)NC(=O)CSC[C@@H](C(=O)NCC(N)=O)NC(=O)[C@H](CC(=O)O)NC1=O [L1, ClAc-L-Phe-Val-Val-Val-Ser-Thr-Asp-Pro-Trp-Val-Asn-Gly-Leu-Tyr-Ile-Asp-Cys] |  | 0.002 | 0.06 | angiogenesis inhibiting effect stronger than that of Suramin |
